According to publication PMC12144414 (iScience, 2025):
Peptide text beside a SMILES is read from it.

Experiments:
[1] = biological target: mouse GAPDH (Mus musculus, UniProt P16858); experiment: In vitro GAPDH aggregation assay with C152A-GAPDH; assay type: biochemical; conditions: mouse GAPDH 0.3 mg/ml + C152A-GAPDH 0-0.75 mg/ml, 37°C 24 h, A405; n = 3
[2] = tested on: mouse model of AIS induced by transient MCAO; conditions: in vivo
[3] = biological target: Human recombinant GAPDH (Homo sapiens, UniProt P04406); experiment: GAI peptide inhibition of GAPDH aggregation; assay type: biochemical; conditions: read-out: Potency: Aggregation inhibitory activity (%); SD
[4] = Levels of pyruvate in the brain; assay type: in vivo, mouse; conditions: GAI-17 treatment; data not shown
[5] = Regional cerebral blood flow; assay type: in vivo, mouse; conditions: 60 nmol GAI-17, during ischemia-reperfusion; n = 4
[6] = Physiological parameters during ischemia/reperfusion; assay type: in vivo, mouse; conditions: 60 nmol GAI-17, during ischemia-reperfusion
[7] = Stability in mouse blood serum; assay type: in vitro ADME; conditions: prediction: endopeptidase cleavage upon peripheral injection; not tested

Human recombinant GAPDH, sequence (P04406 whole entry): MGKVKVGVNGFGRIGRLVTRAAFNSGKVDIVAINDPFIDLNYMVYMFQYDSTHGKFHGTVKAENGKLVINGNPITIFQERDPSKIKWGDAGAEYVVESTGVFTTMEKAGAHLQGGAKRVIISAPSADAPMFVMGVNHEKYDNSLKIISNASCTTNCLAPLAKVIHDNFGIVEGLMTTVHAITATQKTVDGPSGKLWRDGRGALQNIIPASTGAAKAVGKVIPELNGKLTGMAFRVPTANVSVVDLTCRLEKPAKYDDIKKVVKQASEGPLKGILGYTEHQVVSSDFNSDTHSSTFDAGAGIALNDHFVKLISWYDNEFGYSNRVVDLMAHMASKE
mouse GAPDH, sequence (P16858 whole entry): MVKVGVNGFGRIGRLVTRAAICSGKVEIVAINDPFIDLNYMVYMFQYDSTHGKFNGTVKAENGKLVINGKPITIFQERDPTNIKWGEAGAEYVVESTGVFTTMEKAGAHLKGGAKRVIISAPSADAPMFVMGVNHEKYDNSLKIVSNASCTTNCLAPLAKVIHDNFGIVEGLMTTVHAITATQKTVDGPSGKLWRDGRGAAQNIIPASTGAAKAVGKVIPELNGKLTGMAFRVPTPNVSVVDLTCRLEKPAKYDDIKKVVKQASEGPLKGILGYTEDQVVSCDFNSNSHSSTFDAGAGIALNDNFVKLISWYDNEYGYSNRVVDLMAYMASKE

Compound: human GAPDH-C152A: His-tagged recombinant human GAPDH mutant with Cys-152 substituted to alanine, dominant-negative for aggregation
- Inhibitory effect on mouse GAPDH aggregation in vitro [1]: confirmed in vitro

Compound: C#CCN(C)[C@H](C)Cc1ccccc1 [deprenyl]
- Development of brain infarction caused by MCAO (infarct volume in whole brain) [2]: no significant effect

Compound: C[C@@H](O)[C@H](NC(=O)[C@H](CS)NC(=O)[C@@H](N)CO)C(=O)O [GAI-17] (H-Ser-Cys-Thr-OH)
- inhibition [3]: 97.2 ± 1.88%
- Levels of pyruvate in the brain [4]: did not affect
- Cerebral blood flow [5]: no changes
- Physiological parameters (MBP, HR, blood PaO2, PaCO2, pH, RT) [6]: no changes
- Stability in mouse blood serum [7]: predicted to be unstable
